Data set [1] is described as follows: pKa value was determined. In kind it is physicochemical.
Data set [2] is described as follows: Area under the concentration time curve in rat after 40 mg/kg oral dosage. Type of data set: ADME, organism-based. Further details: dose 40 mg/kg, route oral; unit not given here. Conditions: in vivo.
A short description of data set [3]: Area under the concentration time curve in human after 100 mg/kg oral dosage. Conditions: in vivo. Further details: dose 100 mg/kg, route oral; unit not given here. In kind it is ADME, organism-based.

Structures are written as SMILES.

On to `N#Cc1ccc(Nc2nc(N)nc(Cc3c(Cl)cccc3Cl)n2)cc1`, for which, in data set [1], the pKa came out at 3.1. The same compound showed an AUC in data set [2] of 1.5.
For `N#Cc1ccc(Nc2nc(N)nc(Cc3c(Cl)ccc4[nH]ccc34)n2)cc1`, the pKa in data set [1] was found to be 3.3. This compound also gave an AUC in data set [2] of 67.5.
The compound `Cc1cc(C#N)cc(C)c1Oc1nc(Nc2ccc(C#N)cc2)ncc1Br` registered a pKa in data set [1] of 2.7.
`Cc1cc(C)c(Nc2nc(Nc3ccc(C#N)cc3)ncc2Cl)c(C)c1` showed a pKa in data set [1] of 3.6.
For `Cc1cc(C#N)cc(C)c1Nc1ccnc(Nc2ccc(C#N)cc2)n1`, the AUC in data set [3] turned out to be 8.2; in data set [2], 49.3. For the same compound, in data set [1], the pKa came to 5.1.
With `N#Cc1ccc(Nc2nc(N)nc(Oc3c(Cl)cccc3Cl)n2)cc1`, in data set [1], the pKa was 1.9. In data set [2], this compound showed an AUC of 0.6.
`N#Cc1ccc(Nc2nc(Cc3c(Cl)cccc3Cl)nc(NO)n2)cc1`: the AUC in data set [3] and in data set [2] was 0.1 throughout. The same compound showed a pKa in data set [1] of 2.5.
In data set [1], `Cc1cc(C)c(Nc2ncnc(Nc3ccc(C#N)cc3)n2)c(C)c1` had a pKa of 2.6.
The compound `N#Cc1ccc(Nc2nc(N)nc(Cc3c(Cl)ccc(Cl)c3Cl)n2)cc1` yielded a pKa in data set [1] of 2.8. For the same compound, the AUC in data set [2] is reported as 4.4.
`Cc1cc(C)c(Nc2nc(N)nc(Nc3ccc(C#N)cc3)n2)c(C)c1` gave a pKa in data set [1] of 3.8.
In turn, `N#Cc1ccc(Nc2nc(N)cc(Cc3c(Cl)cccc3Cl)n2)cc1` returned an AUC in data set [2] of 7.3.
The compound `Cc1cc(C#N)cc(C)c1Oc1nc(Nc2ccc(C#N)cc2)nc(CO)c1Br` registered a pKa in data set [1] of 2. For the same compound, the AUC in data set [2] is on record as 0.6.
Regarding `Cc1cc(C#N)cc(C)c1Oc1nc(Nc2ccc(C#N)cc2)nc(N)c1Br` [ETRAVIRINE], the pKa in data set [1] was 3.5.
